Measurements from patent US10676467B2 (Washington University, priority 2017, dated 2020).
Several values for one entry are separate records, joined by “and”; a condition that tells them apart may be missing. Equal entries are not always repeated.

Assays:
[1] = target: S1P1 (Rattus norvegicus (Rat), UniProt P48303); experiment: MicroPET and tracer kinetic modeling in EAE rat model, lumbar spinal cord; type: in vivo
Description: MicroPET scans were performed using an Inveon PET/CT system (Siemens Inc., Knoxville, Tenn.). […] Each rat was secured to a custom-designed acrylic bed equipped with a nosecone for gas anesthesia. PET/CT scans were conducted under 1.5-2% isoflurane anesthesia with the rat placed in transaxial position and centered with the T13 vertebral spine in the field of view. […] A list mode protocol was used with 60-min dynamic data acquisition.
PET image data was processed using filter back projection algorithm with attenuation and scatter corrections. The data were reconstructed per time frame employing an iterative reconstructional algorithm (three-dimensional ordered subset expectation maximization (3D-OSEM), maximum a posteriori (MAP)) and corrected for decay, random coincidences, scatter, and attenuation. […] Image data was analyzed using Inveon Research Workstation software IRW 4.2 (Siemens Inc., Knoxville, Tenn.). The regions of interest (ROI), the lumbar spinal cord and bilateral common carotid arteries, were drawn over the co-registered PET/CT images using the standard protocol published previously. Time-activity curves (TACs) were obtained and were expressed as % ID/g. A two-tailed t-test was used for the comparison of the tracer uptake in EAE rat lumbar spinal cord versus sham. A P value less than 0.05 was considered statistically significant. Time-activity curves were further analyzed using 2-tissue-compartment model (2TCM), as well as Logan graphical analysis, using the ROI over bilateral common carotid arteries for image-based arterial blood input function.

[2] = Ex vivo autoradiography of [18F]22b in rat brain; details: male SD rat, 60 min post-injection
Description: Frozen slides were directly exposed to a BAS storage phosphor screen film (BAS-IP-MS-2025) in an imaging cassette (Fuji Photo Film Co., Tokyo, Japan) for 12 h at -80° C. under the dark. The distribution of radioactivity was visualized by a Fuji Bio-Imaging Analyzer FLA-7000 (Fuji Photo Film Co., Tokyo, Japan). […] E. Toman, S. Spiegel, Lysophospholipid receptors in the nervous system, Neurochem. Res. 27 (2002) 619-627; […]. Tanaka, J. Aoki, H. Arai, S. Noji, Expression patterns of the lysophospholipid receptor genes during mouse early development, Dev. Dyn. […] Cytochem. 58 (2010) 847-856).

[3] = target: S1P1 (Mus musculus (Mouse), UniProt O08530); experiment: In vitro autoradiography of [18F]22b in brain slices of LPS-treated mice, SEW2871 blocking; type: binding; details: brain sections of LPS-treated mice, ~6 nM tracer, 10 μM SEW2871, 60 min RT
Description: To confirm the binding specificity of [^18F]22b toward S1P1, in vitro autoradiography studies were performed using mouse brain slices that generated from LPS-induced murine neuroinflammation model, a widely used model for neuroinflammation, and the expression of S1P1 was activated in the mouse brain following the LPS injection according to the report (M. Kono, E. G. Conlon, S. Y. Lux, K. Yanagida, T. Hla, R. L. Proia, Bioluminescence imaging of G protein-coupled receptor activation in living mice, Nat. Commun. 8 (2017) 1163). Adult male C57BL/6 mice (20-25 g, Charles River Inc., Frederick, Md.) were used to generate LPS-induced neuroinflammation murine model. The mice (n=2) received an intraperitoneal injection of LPS from E. coli 055:65 (Sigma-Aldrich, St. Louis, Mo., USA) in saline (3 mg/mL) at dose of 15 mg/kg (5 mL/kg) and then euthanized at 24 h post-injection. Mouse brains were collected and cut into 20 μm sequential sections using a Microm cryotome and mounted on glass slides. […] The distribution of radioactivity was visualized by a Fuji Bio-Imaging Analyzer FLA-7000 (Fuji Photo Film, Tokyo, Japan). Photo-stimulated luminescence (PSL) from the brain slices was quantified using Multi Gauge v3.0 software (Fuji Photo Film Co., Tokyo, Japan). Data were background-corrected, and expressed as photo-stimulated luminescence signals per square millimeter (PSL/mm^2).

[4] = Ex vivo biodistribution in female Lewis rats; parameters: species or system rat
Description: Organs of blood, heart, lung, muscle, fat, pancreas, spleen, kidney, liver, thymus, brain, and bone were dissected and collected for counting. All the samples were counted with a dilution of the injectate on an automated well counter (Beckman Gamma 8000 well counter). Tissues were weighed and the uptake was reported as background and decay-corrected percent injected dose per gram (% ID/g).
The whole brains were quickly harvested and dissected into regions of cerebellum, brain stem, cortex, striatum, thalamus, and hippocampus, the remainder of the brain was also collected to determine the total brain uptake. Organs of blood, heart, lung, muscle, fat, pancreas, spleen, kidney, liver, thymus, and bone were also dissected and collected for counting. All the samples were counted with a dilution of the injectate on an automated well counter (Beckman Gamma 8000 well counter). Tissues were weighed and the uptake was reported as background and decay-corrected percent injected dose per gram (% ID/g).

Sequence of S1P1 (Rattus norvegicus (Rat), UniProt P48303) (P48303 whole entry): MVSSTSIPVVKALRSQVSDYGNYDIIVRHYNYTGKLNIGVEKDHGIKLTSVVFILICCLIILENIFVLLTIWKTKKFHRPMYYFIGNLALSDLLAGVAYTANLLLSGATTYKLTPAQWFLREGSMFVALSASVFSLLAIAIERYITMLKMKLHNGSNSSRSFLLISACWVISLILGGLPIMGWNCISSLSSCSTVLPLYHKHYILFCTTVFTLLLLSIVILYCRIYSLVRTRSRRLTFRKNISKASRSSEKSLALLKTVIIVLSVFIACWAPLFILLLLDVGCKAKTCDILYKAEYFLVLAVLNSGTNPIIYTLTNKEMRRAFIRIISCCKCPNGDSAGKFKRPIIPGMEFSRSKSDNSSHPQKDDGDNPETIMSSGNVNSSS
Sequence of S1P1 (Mus musculus (Mouse), UniProt O08530) (O08530 whole entry): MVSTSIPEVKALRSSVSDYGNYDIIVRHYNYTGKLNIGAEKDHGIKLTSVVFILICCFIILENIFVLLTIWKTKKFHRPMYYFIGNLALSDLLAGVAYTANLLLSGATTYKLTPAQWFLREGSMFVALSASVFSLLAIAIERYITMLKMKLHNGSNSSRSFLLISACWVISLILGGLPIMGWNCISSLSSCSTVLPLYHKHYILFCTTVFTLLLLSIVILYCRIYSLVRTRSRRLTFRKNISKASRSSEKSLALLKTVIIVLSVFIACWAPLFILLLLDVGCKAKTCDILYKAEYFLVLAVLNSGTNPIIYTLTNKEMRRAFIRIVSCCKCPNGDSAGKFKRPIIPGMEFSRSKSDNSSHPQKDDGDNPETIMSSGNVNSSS

OCc1cn(Cc2ccc(-c3noc(-c4ccc(OCC[18F])c(C(F)(F)F)c4)n3)cc2)nn1 [[^18F]22b]
Visualization of rat lumbar spinal cord by microPET ([1]; EAE and sham rats): not high enough for clear visualization
Tracer uptake in lumbar spinal cord, EAE ([1]; EAE rats, summed % ID/g value, 10-60 min post injection, n=4): 0.47±0.05 % ID/g
Increase of tracer uptake in EAE rat lumbar spinal cord compared with shams ([1]; microPET, 10-60 min post injection, listed as 18F-TZ43113): ~37% and 36.7%
Tracer uptake in sham rat spinal cord (TAC) ([1]; sham rats, 10-60 min post injection): approximately 0.35 % ID/g
Tracer uptake in lumbar spinal cord, sham ([1]; sham rats, summed % ID/g value, 10-60 min post injection, n=4): 0.34±0.05 % ID/g
Blood-brain barrier crossing, rat brain [2]: able to cross the BBB
Reduction of tracer uptake by SEW2871 blocking [3]: ~36%
Tissue uptake, Blood ([4]; 5 min p.i., n = 4): 0.49 % ID/g and 0.49 ± 0.07 % ID/g
Tissue uptake, Blood ([4]; 30 min p.i., n = 4): 0.42 ± 0.05 % ID/g
Tissue uptake, Blood ([4]; 60 min p.i., n = 4): 0.36 ± 0.02 % ID/g
Tissue uptake, Blood ([4]; 120 min p.i., n = 4): 0.35 ± 0.01 % ID/g
Tissue uptake, Bone ([4]; 5 min p.i., n = 4): 0.55 % ID/g and 0.55 ± 0.05 % ID/g
Tissue uptake, Bone ([4]; 30 min p.i., n = 4): 0.45 ± 0.03 % ID/g
Tissue uptake, Bone ([4]; 60 min p.i., n = 4): 0.45 ± 0.01 % ID/g
Tissue uptake, Bone ([4]; 120 min p.i., n = 4): 0.51 ± 0.05 % ID/g
Tissue uptake, Brain ([4]; 5 min p.i., n = 4): 0.49 % ID/g and 0.49 ± 0.04 % ID/g
Tissue uptake, Brain ([4]; 30 min p.i., n = 4): 0.57 % ID/g and 0.57 ± 0.02 % ID/g
Tissue uptake, Brain ([4]; 60 min p.i., n = 4): 0.71 % ID/g and 0.71 ± 0.03 % ID/g
Tissue uptake, Brain ([4]; 60 min p.i., n = 4, listed as 18F-TZ43113): 0.71 % ID/g
Tissue uptake, Brain ([4]; 120 min p.i., n = 4): 0.61 % ID/g and 0.61 ± 0.05 % ID/g
Tissue uptake, Fat ([4]; 5 min p.i., n = 4): 0.51 % ID/g and 0.51 ± 0.22 % ID/g
Tissue uptake, Fat ([4]; 30 min p.i., n = 4): 0.62 ± 0.10 % ID/g
Tissue uptake, Fat ([4]; 60 min p.i., n = 4): 0.69 ± 0.07 % ID/g
Tissue uptake, Fat ([4]; 120 min p.i., n = 4): 0.57 ± 0.07 % ID/g
Tissue uptake, Heart ([4]; 5 min p.i., n = 4): 1.65 % ID/g and 1.65 ± 0.27 % ID/g
Tissue uptake, Heart ([4]; 30 min p.i., n = 4): 1.19 % ID/g and 1.19 ± 0.06 % ID/g
Tissue uptake, Heart ([4]; 60 min p.i., n = 4): 1.05 ± 0.08 % ID/g
Tissue uptake, Heart ([4]; 120 min p.i., n = 4): 0.94 ± 0.06 % ID/g
Tissue uptake, Kidney ([4]; 5 min p.i., n = 4): 3.43 % ID/g and 3.43 ± 0.31 % ID/g
Tissue uptake, Kidney ([4]; 30 min p.i., n = 4): 2.11 % ID/g and 2.11 ± 0.08 % ID/g
Tissue uptake, Kidney ([4]; 60 min p.i., n = 4): 1.91 ± 0.10 % ID/g
Tissue uptake, Kidney ([4]; 120 min p.i., n = 4): 1.62 ± 0.09 % ID/g
Tissue uptake, Liver ([4]; 5 min p.i., n = 4): 5.69 % ID/g and 5.69 ± 0.60 % ID/g
Tissue uptake, Liver ([4]; 30 min p.i., n = 4): 4.30 % ID/g and 4.30 ± 0.37 % ID/g
Tissue uptake, Liver ([4]; 60 min p.i., n = 4): 4.21 ± 0.21 % ID/g
Tissue uptake, Liver ([4]; 120 min p.i., n = 4): 3.66 ± 0.14 % ID/g
Tissue uptake, Lung ([4]; 5 min p.i., n = 4): 2.79 % ID/g and 2.79 ± 0.57 % ID/g
Tissue uptake, Lung ([4]; 30 min p.i., n = 4): 1.96 % ID/g and 1.96 ± 0.07 % ID/g
Tissue uptake, Lung ([4]; 60 min p.i., n = 4): 1.67 ± 0.09 % ID/g
Tissue uptake, Lung ([4]; 120 min p.i., n = 4): 1.54 ± 0.07 % ID/g
Tissue uptake, Muscle ([4]; 5 min p.i., n = 4): 0.39 % ID/g and 0.39 ± 0.04 % ID/g
Tissue uptake, Muscle ([4]; 30 min p.i., n = 4): 0.59 ± 0.05 % ID/g
Tissue uptake, Muscle ([4]; 60 min p.i., n = 4): 0.51 ± 0.02 % ID/g
Tissue uptake, Muscle ([4]; 120 min p.i., n = 4): 0.47 ± 0.02 % ID/g
Tissue uptake, Pancreas ([4]; 5 min p.i., n = 4): 1.96 % ID/g and 1.96 ± 0.56 % ID/g
Tissue uptake, Pancreas ([4]; 30 min p.i., n = 4): 1.89 ± 0.16 % ID/g
Tissue uptake, Pancreas ([4]; 60 min p.i., n = 4): 1.52 ± 0.25 % ID/g
Tissue uptake, Pancreas ([4]; 120 min p.i., n = 4): 1.45 ± 0.15 % ID/g
Tissue uptake, Spleen ([4]; 5 min p.i., n = 4): 2.22 % ID/g and 2.22 ± 0.23 % ID/g
Tissue uptake, Spleen ([4]; 30 min p.i., n = 4): 1.36 % ID/g and 1.36 ± 0.04 % ID/g
Tissue uptake, Spleen ([4]; 60 min p.i., n = 4): 1.27 ± 0.08 % ID/g
Tissue uptake, Spleen ([4]; 120 min p.i., n = 4): 1.14 ± 0.10 % ID/g
Tissue uptake, Thymus ([4]; 5 min p.i., n = 4): 0.69 % ID/g and 0.69 ± 0.08 % ID/g
Tissue uptake, Thymus ([4]; 30 min p.i., n = 4): 0.83 ± 0.07 % ID/g
Tissue uptake, Thymus ([4]; 60 min p.i., n = 4): 0.82 ± 0.04 % ID/g
Tissue uptake, Thymus ([4]; 120 min p.i., n = 4): 0.78 ± 0.05 % ID/g
Defluorination in vivo (bone uptake 5 to 120 min) ([4]; bone radioactivity unchanged): no defluorination in vivo
Regional brain uptake, brain stem ([4]; brain stem, 5 min p.i.): 0.50 ID %/g
Regional brain uptake, cerebellum ([4]; cerebellum, 5 min p.i.): 0.53 ID %/g
Regional brain uptake, cortex ([4]; cortex, 5 min p.i.): 0.59 ID %/g
Regional brain uptake, hippocampus ([4]; hippocampus, 5 min p.i.): 0.43 ID %/g
Time of maximum brain uptake ([4]; post injection): 60 min
Regional brain uptake, striatum ([4]; striatum, 5 min p.i.): 0.47 ID %/g
Regional brain uptake, thalamus ([4]; thalamus, 5 min p.i.): 0.46 ID %/g
